In ChEMBL document CHEMBL5331108, “Design and Synthesis of 4-Fluorophenyl-5-methylene-2(5H)-furanone Derivatives as Potent Quorum Sensing Inhibitors” (J Med Chem, 2023):
In brackets after ≈: the same amount, converted by molar mass. Activity calls are given as the source filed them. The rule behind the calls is not given here.

Columns and labels:
Staphylococcus aureus [1] = assay: Antibacterial activity against methicillin-resistant Staphylococcus aureus ATCC43300 assessed as inhibition of bacterial growth incubated for 20 hrs by CLSI protocol based microdilution method; assay type: functional
Pseudomonas aeruginosa [2] = assay: Synergistic antibacterial activity against Pseudomonas aeruginosa 27853 assessed as inhibition of bacterial growth by measuring fold change in ciprofloxacin at 1 to 256 ug/ml incubated for 24 hrs by absorbance based microplate reader analysis; assay type: functional; conditions: dose 1-256 µg/ml
Pseudomonas aeruginosa [3] = assay: Synergistic antibacterial activity against Pseudomonas aeruginosa PAO1 assessed as inhibition of bacterial growth at 1 to 256 ug/ml incubated for 24 hrs in the presence of Clarithromycin by absorbance based microplate reader analysis; assay type: functional, organism-based; conditions: dose 1-256 µg/ml
Pseudomonas aeruginosa [4] = assay: Inhibition of biofilm formation in Pseudomonas aeruginosa PAO1 at 32 ug/ml incubated for 20 hrs by crystal violet staining based analysis; assay type: functional; conditions: dose 32.0 µg/ml
[5] = Inhibition of quorum sensing system in Pseudomonas aeruginosa PAO1 assessed as inhibition of pyocyanin production at 102.4 ug/ml incubated for 18 hrs by absorbance based assay; conditions: dose 102.4 µg/ml
Pseudomonas aeruginosa [6] = assay: Synergistic antibacterial activity against Pseudomonas aeruginosa 27853 assessed as inhibition of bacterial growth incubated for 24 hrs in the presence of Clarithromycin by absorbance based microplate reader analysis; assay type: functional, organism-based; conditions: dose 1-256 µg/ml
Pseudomonas aeruginosa [7] = assay: Antibacterial activity against penicillin-susceptible Pseudomonas aeruginosa ATCC27853 assessed as inhibition of bacterial growth incubated for 20 hrs by CLSI protocol based microdilution method; assay type: functional
Pseudomonas aeruginosa [8] = assay: Synergistic antibacterial activity against Pseudomonas aeruginosa 27853 assessed as inhibition of bacterial growth at 1 to 128 ug/ml incubated for 24 hrs by absorbance based microplate reader analysis; assay type: functional, organism-based; conditions: dose 1-128 µg/ml
Pseudomonas aeruginosa [9] = assay: Synergistic antibacterial activity against Pseudomonas aeruginosa PAO1 assessed as inhibition of bacterial growth at 1 to 256 ug/ml incubated for 24 hrs in the presence of ciprofloxacin by absorbance based microplate reader analysis; assay type: functional, organism-based; conditions: dose 1-256 µg/ml
Escherichia coli = assay: Antibacterial activity against penicillin-susceptible Escherichia coli ATCC25922 assessed as inhibition of bacterial growth incubated for 20 hrs by CLSI protocol based microdilution method; assay type: functional
[10] = Hemolytic activity in mouse red blood cells assessed as hemolysis rate at 512 ug/ml incubated for 1 hrs by microplate reader analysis relative to control; assay type: toxicity, cell-based, Erythrocyte; conditions: red blood cells (erythrocytes), at 512 µg/mL, read-out: Activity
[11] = Inhibition of quorum sensing system in Pseudomonas aeruginosa PAO1 assessed as inhibition of rhamnolipid production at 102.4 ug/ml incubated for 24 hrs by absorbance based assay; conditions: dose 102.4 µg/ml
Pseudomonas aeruginosa [12] = assay: Antibacterial activity against wild type Pseudomonas aeruginosa […] CGMCC1.12483 assessed as inhibition of bacterial growth incubated for 20 hrs by CLSI protocol based microdilution method; assay type: functional
Pseudomonas aeruginosa [13] = assay: Antibacterial activity against Pseudomonas aeruginosa 27853 assessed as inhibition of bacterial growth at 256 ug/ml measured after 25 hrs by absorbance based assay; assay type: functional, organism-based; conditions: dose 256.0 µg/ml
Staphylococcus aureus [14] = assay: Antibacterial activity against erthromycin-susceptible Staphylococcus aureus ATCC25923 assessed as inhibition of bacterial growth incubated for 20 hrs by CLSI protocol based microdilution method; assay type: functional
[15] = Inhibition of quorum sensing system in Pseudomonas aeruginosa PAO1 assessed as inhibition of protease activity at 102.4 ug/ml incubated for 24 hrs by absorbance based assay; conditions: dose 102.4 µg/ml
Bacillus pumilus = assay: Antibacterial activity against penicillin-susceptible Bacillus pumilus CMCC63202 assessed as inhibition of bacterial growth incubated for 20 hrs by CLSI protocol based microdilution method; assay type: functional
Bacillus subtilis = assay: Antibacterial activity against penicillin-susceptible Bacillus subtilis ATCC9372 assessed as inhibition of bacterial growth incubated for 20 hrs by CLSI protocol based microdilution method; assay type: functional
Pseudomonas aeruginosa [16] = assay: Synergistic antibacterial activity against Pseudomonas aeruginosa 27853 assessed as inhibition of bacterial growth at 1 to 256 ug/ml incubated for 24 hrs in the presence of Ciprofloxacin by absorbance based microplate reader analysis; assay type: functional, organism-based; conditions: dose 1-256 µg/ml
Pseudomonas aeruginosa [17] = assay: Antibacterial activity against Pseudomonas aeruginosa PAO1 assessed as inhibition of bacterial growth at 256 ug/ml measured after 25 hrs by absorbance based assay; assay type: functional, organism-based; conditions: dose 256.0 µg/ml
Pseudomonas aeruginosa [18] = assay: Antibacterial activity against Pseudomonas aeruginosa 27853 assessed as inhibition of bacterial growth at […] incubated for 24 hrs by absorbance based microplate reader analysis relative to control; assay type: functional; conditions: dose 3.2 µg/ml
Pseudomonas aeruginosa [19] = assay: Synergistic antibacterial activity against Pseudomonas aeruginosa PAO1 assessed as inhibition of bacterial growth at highest concentration incubated for 24 hrs in the presence of ciprofloxacin by absorbance based microplate reader analysis relative to control; assay type: functional
Pseudomonas aeruginosa [20] = assay: Inhibition of biofilm formation in Pseudomonas aeruginosa PAO1 assessed as effect on biofilm morphology at 102.4 ug/ml incubated for 24 hrs by scanning electron microscopic analysis; assay type: functional, organism-based; conditions: dose 102.4 µg/ml
Staphylococcus aureus [21] = assay: Antibiofilm activity against Staphylococcus aureus ATCC33591 assessed as inhibition of biofilm formation incubated for 24 hrs by crystal violet staining based broth microdilution method; assay type: functional, organism-based; conditions: ATCC33591, 24 h
Enterococcus faecalis = assay: Antibiofilm activity against Enterococcus faecalis ATCC19433 assessed as inhibition of biofilm formation incubated for 24 hrs by crystal violet staining based broth microdilution method; assay type: functional, organism-based; conditions: ATCC19433, 24 h
Klebsiella pneumoniae = assay: Antibiofilm activity against Klebsiella pneumoniae ATCC13882 assessed as inhibition of biofilm formation incubated for 24 hrs by crystal violet staining based broth microdilution method; assay type: functional, organism-based; conditions: ATCC13882, 24 h

| Compound | MIC (Staphylococcus aureus [1]) [µg/mL] | fold change (FC) (Pseudomonas aeruginosa [2]) | Activity (Pseudomonas aeruginosa [3]) | inhibition (Pseudomonas aeruginosa [4]) | inhibition [5] | Activity (Pseudomonas aeruginosa [6]) | MIC (Pseudomonas aeruginosa [7]) [µg/mL] | Activity (Pseudomonas aeruginosa [9]) | MIC (Escherichia coli) [µg/mL] | hemolysis at 1 h, 512 ug/ml [10] [%] | inhibition [11] | MIC (Pseudomonas aeruginosa [12]) [µg/mL] | Activity (Pseudomonas aeruginosa [13]) | MIC (Staphylococcus aureus [14]) [µg/mL] | inhibition [15] | MIC (Bacillus pumilus) [µg/mL] | MIC (Bacillus subtilis) [µg/mL] | Activity (Pseudomonas aeruginosa [16]) | Activity (Pseudomonas aeruginosa [17]) | further results |
| --- | --- | --- | --- | --- | --- | --- | --- | --- | --- | --- | --- | --- | --- | --- | --- | --- | --- | --- | --- | --- |
| C=C1OC(=O)C(CNC(=O)c2ccc(Br)cc2)=C1c1ccc(F)cc1 | 8 (≈ 19.9 µM) | >=1.5 | Active | inactive | 34.7% | Dose-Dependent Effect | > 512 | Active | > 512 | > 2.5 | 48.5% | > 512 | inactive | > 512 | 8.6% | > 512 | 16 (≈ 39.8 µM) | Active | inactive | Activity (Pseudomonas aeruginosa [8]): Active |
| CC[C@H]1OC(=O)[C@H](C)[C@@H](O[C@H]2C[C@@](C)(OC)[C@@H](O)[C@H](C)O2)[C@H](C)[C@@H](O[C@@H]2O[C@H](C)C[C@H](N(C)C)[C@H]2O)[C@](C)(OC)C[C@@H](C)C(=O)[C@H](C)[C@@H](O)[C@]1(C)O [CLARITHROMYCIN] | 16 (≈ 21.4 µM) | – | – | – | – | – | 128 (≈ 171 µM) | – | 128 (≈ 171 µM) | – | – | 256 (≈ 342 µM) | – | 0.25 (≈ 0.334 µM) | – | 0.25 (≈ 0.334 µM) | 0.25 (≈ 0.334 µM) | – | – | inhibition at […] (Pseudomonas aeruginosa [18]): 32.7% |
| C=C1OC(=O)C(CNC(=O)c2ccc(OC)cc2)=C1c1ccc(F)cc1 | 64 (≈ 181 µM) | – | Active | Active | 44% | Dose-Dependent Effect | > 512 | Active | > 512 | – | Active | > 512 | inactive | 32 (≈ 90.6 µM) | 8.6% | 32 (≈ 90.6 µM) | 128 (≈ 362 µM) | Active | inactive | inhibition (INH) (Pseudomonas aeruginosa [19]): 90.53% |
| C=C1C(c2ccc(F)cc2)=C(CNC(=O)c2ccc(C)cc2)C(=O)N1c1ccc(C)cc1 | > 512 | >=1.5 | – | inactive | Active | Dose-Dependent Effect | > 512 | Active | > 512 | > 2.5 | 49.7% | 512 (≈ 1200 µM) | inactive | > 512 | 8.6% | 512 (≈ 1200 µM) | 512 (≈ 1200 µM) | Active | inactive | – |
| CC[C@H]1OC(=O)[C@H](C)[C@@H](O[C@H]2C[C@@](C)(OC)[C@@H](O)[C@H](C)O2)[C@H](C)[C@@H](O[C@@H]2O[C@H](C)C[C@H](N(C)C)[C@H]2O)[C@](C)(O)C[C@@H](C)CN(C)[C@H](C)[C@@H](O)[C@]1(C)O [AZITHROMYCIN] | 256 (≈ 342 µM) | – | – | – | – | – | 16 (≈ 21.4 µM) | – | 128 (≈ 171 µM) | – | – | 256 (≈ 342 µM) | – | 0.25 (≈ 0.334 µM) | – | 0.25 (≈ 0.334 µM) | 0.25 (≈ 0.334 µM) | – | – | inhibition (Pseudomonas aeruginosa [20]): inactive |
| C=C1OC(=O)C(CNC(=O)CCCCCCCCCCC)=C1c1ccc(F)cc1 | > 512 | – | – | Active | 36.5% | – | > 512 | – | > 512 | – | Active | > 512 | inactive | > 512 | Active | > 512 | > 512 | – | inactive | – |
| C=C1OC(=O)C(CNC(=O)c2ccc(Cl)cc2)=C1c1ccc(F)cc1 | > 512 | – | Active | Active | Active | Dose-Dependent Effect | > 512 | Active | > 512 | > 2.5 | 47.3% | > 512 | inactive | > 512 | 8.6% | > 512 | > 512 | Active | inactive | – |
| C=C1OC(=O)C(CNC(=O)c2ccc(C)cc2)=C1c1ccc(OC)cc1 | > 512 | – | – | inactive | Active | – | > 512 | – | > 512 | – | Active | > 512 | inactive | > 512 | Active | > 512 | > 512 | – | inactive | – |
| C=C1OC(=O)C(CNC(=O)c2cccc(OC)c2)=C1c1ccc(F)cc1 | 32 (≈ 90.6 µM) | – | Active | Active | Active | Dose-Dependent Effect | > 512 | Active | > 512 | – | Active | > 512 | inactive | > 512 | 8.6% | > 512 | > 512 | Active | inactive | – |
| C=C1C(c2ccc(F)cc2)=C(CNC(=O)c2ccc(C)cc2)C(=O)N1c1ccccc1C | > 512 | >=1.5 | Active | inactive | 38.3% | Dose-Dependent Effect | > 512 | Active | > 512 | < 2.5 | 45.9% | 512 (≈ 1200 µM) | inactive | > 512 | 8.6% | 512 (≈ 1200 µM) | > 512 | Active | inactive | – |
| O=C1O/C(=C\c2cc(Br)c(O)c(Br)c2)C(c2ccc(O)c(Br)c2)=C1C(=O)c1ccccc1 | – | – | – | – | – | – | – | – | – | – | – | – | – | – | – | – | – | – | – | IC50 (Staphylococcus aureus [21]): 0.7 µg/mL (≈ 1.13 µM); IC50 (Enterococcus faecalis): 3.6 µg/mL (≈ 5.8 µM); IC50 (Klebsiella pneumoniae): 7.5 µg/mL (≈ 12.1 µM) |
| C=C1C(c2ccc(F)cc2)=C(CNC(=O)c2ccc(C)cc2)C(=O)N1c1cccc(C)c1 | > 512 | >=1.5 | – | Active | 35.2% | Dose-Dependent Effect | > 512 | Active | > 512 | > 2.5 | 57.1% | 512 (≈ 1200 µM) | inactive | > 512 | 8.6% | 512 (≈ 1200 µM) | > 512 | Active | inactive | – |
